The source of these data is PMC8151276, “An Integrated Approach toward NanoBRET Tracers for Analysis of GPCR Ligand Engagement” (Molecules, 2021).

Common to all, as to format: binding
One experiment concerns the target T1, FZD8 (Homo sapiens, UniProt Q9H461).
T1 construct: purchased Promega (in-house HiBiT-GPCR construct library, NanoBRET)
Description: NanoBRET screen HiBiT-FZD8 in HEK293. As for the experimental part:
(§1) Each tracer candidate was screened across the entire library of HiBiT-GPCR constructs using NanoBRET as the detection modality. As depicted in Figure 4A, the specificity of interactions was evaluated through decrease in BRET due to competitive displacement of a bound tracer by excess parental compound. Each tracer was analyzed for binding to each HiBiT-GPCR fusion in the absence and in the presence of competing parental compound. Briefly, HEK293 cells were transfected with HiBiT-GPCR constructs diluted into promoterless DNA to reduce expression and maximize translocation to the cell surface. Each tracer candidate was then screened at concentrations of 1 μM and 0.1 μM across cells expressing these fusions. Cells were treated for 1.5 h with tracer either alone or in the presence of 20 μM competing parental compound (i.e., control). BRET was measured upon addition of purified LgBiT and subsequent complementation with HiBiT genetically fused to a GPCR. The specificity of interactions was assessed through a decrease in BRET signal due to competitive displacement of the bound tracer. To further gauge the robustness of these interactions, the fold response over the control (i.e., BRETtracer/BRETcontrol) was calculated. We chose a 1.5-fold response, which translates to ≥7-fold signal over noise as the minimal threshold required to score an interaction as positive. […]. Below we highlight the screening results obtained for our exemplary fluorescent tracers based on Clozapine, Amitriptyline and AZD1283.
(§2) HiBiT-GPCR DNA constructs were diluted in 10 mM Tris pH 8 to a final concentration of 0.01 μg/μL, arrayed in 96-well plates and stored at −20 °C. For transfection, HEK293 cells were suspended in Opti-MEM (without phenol red) supplemented with 2% fetal bovine serum (Seradigm) and 100 units/mL penicillin–streptomycin (Gibco) at a final concentration of 220,000 cells/mL and dispensed into white 96-well plates at 90 μL/well. Subsequent transfections and screens were carried using an Agilent Bravo Automated Liquid Handling Platform. First, the 96-well HiBiT DNA arrays were diluted 25-fold in Opti-MEM (without serum or phenol red) to a final concentration of 0.0004 μg/μL and 20 μL of the diluted DNAs were transferred into new 96-well plates. Next, promoterless carrier DNA (1 μg/μL) was diluted 25-fold (0.04 μg/μL) and then dispensed into the diluted arrays at 20 μL/well. Following brief mixing, Viafect transfection reagent (Promega) diluted 16-fold into Opti-MEM was dispensed into the plates at 40 μL/well. After mixing by pipetting, plates were incubated for 10 min on the pipetting station deck. The DNA-transfection reagent complexes were then added to plates containing cells. To facilitate the screen, 10 μL of DNA-transfection reagent complexes were added in duplicates to the top 4 and bottom 4 rows, resulting in two identical 48-well arrays per plate. Plates with transfected cells were incubated for 18–20 h at 37 °C/5% CO2. A screen of each tracer across the entire library using two different concentrations requires duplicate plates of transfected cells. Depending on the number of tracers being screened, transfections can be scaled up using the same ratios. The next day, for each tracer, four 20× screening solutions in tracer dilution buffer (Promega) were prepared: two duplicates at final concentration of 20 μM and two duplicates at a final concentration of 2 μM. A competing unmodified compound was added to one of each duplicate at a final concentration of 400 μM. The four resulting solutions were diluted 4-fold in Opti-MEM without serum or phenol red to generate 5× solutions (5 µM and 0.5 µM tracer +/− 100 μM competing compound). To screen the library, a BioTek MultiFlo FX liquid dispenser was used to dispense 22.5 µL of tracer solution to the top 4 rows and 22.5 µL tracer + competing compound solution to the 4 bottom rows. Plates were briefly mixed on an orbital shaker and incubated for 1.5 h at room temperature. […]

Another experiment addresses T2, HRH3 (Homo sapiens, UniProt Q9Y5N1).
T2 construct: purchased Promega (in-house HiBiT-GPCR construct library, NanoBRET)
Description: NanoBRET screen HiBiT-HRH3 in HEK293. As for the experimental part: as §1, §2

The next experiment concerns the target T3, GHSR (Homo sapiens, UniProt Q92847).
T3 construct: purchased Promega (in-house HiBiT-GPCR construct library, NanoBRET)
Description: NanoBRET screen HiBiT-GHSR in HEK293. As for the experimental part:
as §1, §2

Another experiment has as its target T4, SSTR1 (Homo sapiens, UniProt P30872).
T4 construct: purchased Promega (in-house HiBiT-GPCR construct library, NanoBRET)
Description: NanoBRET screen HiBiT-SSTR1 in HEK293. As for the experimental part: as §1, §2

T1 sequence (Q9H461 28-694): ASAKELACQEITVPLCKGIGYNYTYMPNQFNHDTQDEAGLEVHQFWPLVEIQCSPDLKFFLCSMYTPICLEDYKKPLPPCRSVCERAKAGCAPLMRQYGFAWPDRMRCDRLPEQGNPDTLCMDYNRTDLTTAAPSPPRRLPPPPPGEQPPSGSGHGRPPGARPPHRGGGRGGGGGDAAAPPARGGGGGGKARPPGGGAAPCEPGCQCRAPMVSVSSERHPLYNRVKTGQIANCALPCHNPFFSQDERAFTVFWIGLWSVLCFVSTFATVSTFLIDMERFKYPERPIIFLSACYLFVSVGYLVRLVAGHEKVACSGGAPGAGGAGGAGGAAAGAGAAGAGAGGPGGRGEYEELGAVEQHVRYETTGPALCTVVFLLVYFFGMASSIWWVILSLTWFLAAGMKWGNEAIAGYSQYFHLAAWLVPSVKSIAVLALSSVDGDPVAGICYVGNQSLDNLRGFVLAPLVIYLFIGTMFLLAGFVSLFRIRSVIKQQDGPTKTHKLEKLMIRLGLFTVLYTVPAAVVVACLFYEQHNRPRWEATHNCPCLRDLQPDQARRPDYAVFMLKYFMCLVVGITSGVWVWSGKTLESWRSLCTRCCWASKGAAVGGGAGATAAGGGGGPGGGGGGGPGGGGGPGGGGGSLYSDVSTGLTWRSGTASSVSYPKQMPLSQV
T2 sequence (Q9Y5N1 whole entry): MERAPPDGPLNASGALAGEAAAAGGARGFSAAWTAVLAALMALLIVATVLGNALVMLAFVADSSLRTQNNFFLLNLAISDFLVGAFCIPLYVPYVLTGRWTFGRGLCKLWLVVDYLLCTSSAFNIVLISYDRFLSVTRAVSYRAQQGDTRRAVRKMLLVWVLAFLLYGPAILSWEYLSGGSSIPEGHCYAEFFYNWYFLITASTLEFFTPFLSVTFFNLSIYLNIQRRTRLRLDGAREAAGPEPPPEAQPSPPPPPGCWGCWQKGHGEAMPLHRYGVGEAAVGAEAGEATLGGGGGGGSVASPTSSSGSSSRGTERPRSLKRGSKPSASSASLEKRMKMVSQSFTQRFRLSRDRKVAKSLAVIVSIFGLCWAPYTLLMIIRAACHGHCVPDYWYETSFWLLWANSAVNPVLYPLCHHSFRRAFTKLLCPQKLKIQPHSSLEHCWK
T3 sequence (Q92847 whole entry): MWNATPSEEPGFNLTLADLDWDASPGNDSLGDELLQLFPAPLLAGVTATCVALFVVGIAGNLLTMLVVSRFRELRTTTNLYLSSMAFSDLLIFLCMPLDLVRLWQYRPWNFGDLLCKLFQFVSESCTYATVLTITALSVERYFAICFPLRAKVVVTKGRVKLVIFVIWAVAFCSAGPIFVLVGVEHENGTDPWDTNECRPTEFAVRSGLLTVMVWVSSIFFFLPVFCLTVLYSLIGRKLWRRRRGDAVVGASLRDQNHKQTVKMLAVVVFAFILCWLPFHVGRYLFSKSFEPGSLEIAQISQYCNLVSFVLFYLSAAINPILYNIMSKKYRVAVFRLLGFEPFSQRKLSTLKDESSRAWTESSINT
T4 sequence (P30872 whole entry): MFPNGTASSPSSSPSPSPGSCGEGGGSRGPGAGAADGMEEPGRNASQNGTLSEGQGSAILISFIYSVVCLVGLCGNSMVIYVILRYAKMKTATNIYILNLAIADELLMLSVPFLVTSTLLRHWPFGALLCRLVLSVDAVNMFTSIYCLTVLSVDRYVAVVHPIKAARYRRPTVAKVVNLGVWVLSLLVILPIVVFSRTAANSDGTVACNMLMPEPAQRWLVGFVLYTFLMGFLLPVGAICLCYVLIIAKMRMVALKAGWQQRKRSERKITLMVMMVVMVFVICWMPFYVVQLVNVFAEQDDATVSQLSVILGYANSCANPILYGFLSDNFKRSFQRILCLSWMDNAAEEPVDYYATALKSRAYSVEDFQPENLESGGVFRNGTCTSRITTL

Consider `O=C(CCOCCOCCOCCOCCNC(=O)CCc1ccc2n1[B-](F)(F)[N+]1=C(c3ccc[nH]3)C=CC1=C2)NCCCN1CCN(C2=Nc3ccccc3Oc3ccc(Cl)cc32)CC1` [Loxapine-a-2-NB590], for which the “NanoBRET Fold Response” value is 0.95 on FZD8 (FZD8, tracer 0.1μM); 1.01 at FZD8 (FZD8, tracer 1μM); 1.06 on HRH3 (HRH3, tracer 0.1μM); 1.01 on HRH3 (HRH3, tracer 1μM); 0.97 at GHSR (GHSR, tracer 0.1μM); 1.09 on GHSR (GHSR, tracer 1μM). In addition, the “NanoBRET Fold Response” value at SSTR1 (SSTR1, tracer 0.1μM) worked out at 1.06; at SSTR1 (SSTR1, tracer 1μM), 1.30.

As for `CCCn1c(=O)c2[nH]c(-c3ccc(OCC(=O)NCCNC(=O)CCOCCNC(=O)c4ccc(CNC(=O)CCc5ccc6n5[B-](F)(F)[N+]5=C(c7ccc[nH]7)C=CC5=C6)cc4)cc3)nc2n(CCC)c1=O` [XAC-3-NB590], the “NanoBRET Fold Response” value came out at 0.95 at FZD8 (FZD8, tracer 0.1μM); 1.02 on FZD8 (FZD8, tracer 1μM); 0.81 at HRH3 (HRH3, tracer 0.1μM); 1.33 at HRH3 (HRH3, tracer 1μM); 1.07 at GHSR (GHSR, tracer 0.1μM); 1.02 on GHSR (GHSR, tracer 1μM). In addition, the “NanoBRET Fold Response” value on SSTR1 (SSTR1, tracer 0.1μM) is listed as 0.98; at SSTR1 (SSTR1, tracer 1μM), 1.05.

With `CN(C)CCC=C1c2ccccc2CCc2ccc(C(=O)NCCNC(=O)CCOCCOCCOCCOCCNC(=O)CCc3ccc4n3[B-](F)(F)[N+]3=C(c5ccc[nH]5)C=CC3=C4)cc21` [Amitriptyline-a-2-NB590], the “NanoBRET Fold Response” value at HRH3 (tracer at 0.1μM) is 1.01; at HRH3 (tracer at 1μM), 0.94; at GHSR (tracer at 0.1μM), 0.97; on GHSR (tracer at 1μM), 1.04; on SSTR1 (tracer at 0.1μM), 1.30; at SSTR1 (tracer at 1μM), 1.28.

Turning to `COc1ccccc1N1CCN(CCCCN2C(=O)c3ccc(CNC(=O)CCOCCOCCOCCOCCNC(=O)CCc4ccc5n4[B-](F)(F)[N+]4=C(c6ccc[nH]6)C=CC4=C5)cc3C2=O)CC1` [NAN-190-2-NB590], the “NanoBRET Fold Response” value at FZD8 (FZD8, tracer 0.1μM) is 0.95; on FZD8 (FZD8, tracer 1μM), 1.03; at HRH3 (HRH3, tracer 0.1μM) it was 0.98; on HRH3 (HRH3, tracer 1μM) it was 0.97; on GHSR (GHSR, tracer 0.1μM), 1.01; at GHSR (GHSR, tracer 1μM) it was 1.02. In addition, the “NanoBRET Fold Response” value at SSTR1 (SSTR1, tracer 0.1μM) amounted to 0.94; on SSTR1 (SSTR1, tracer 1μM) it was 1.08.

With `O=C(CCc1ccc2n1[B-](F)(F)[N+]1=C(c3ccc[nH]3)C=CC1=C2)NCc1ccc(C(=O)NCCOCCOCCNCC(O)COc2cccc3ccccc23)cc1` (stereo not drawn) [Propranolol-3-NB590], the “NanoBRET Fold Response” value at FZD8 (FZD8, 0.1μM) worked out at 1.01; on FZD8 (FZD8, 1μM) it was 1.02; at HRH3 (HRH3, 0.1μM) it was 0.97; at HRH3 (HRH3, 1μM) it was 1.00; at GHSR (GHSR, 0.1μM), 0.98; on GHSR (GHSR, 1μM) it was 0.97. The “NanoBRET Fold Response” value at SSTR1 (SSTR1, 0.1μM) turned out to be 1.04; on SSTR1 (SSTR1, 1μM) it was 1.02.

`COc1ccccc1N1CCN(CCCCN2C(=O)c3ccc(CNC(=O)CCOCCNC(=O)c4ccc(CNC(=O)CCc5ccc6n5[B-](F)(F)[N+]5=C(c7ccc[nH]7)C=CC5=C6)cc4)cc3C2=O)CC1` [NAN-190-3-NB590]: the “NanoBRET Fold Response” value at FZD8 (FZD8, tracer 0.1μM) was found to be 1.20; on FZD8 (FZD8, tracer 1μM), 0.87; at HRH3 (HRH3, tracer 0.1μM) it was 1.38; on HRH3 (HRH3, tracer 1μM) it was 0.93; on GHSR (GHSR, tracer 0.1μM) it was 0.86; on GHSR (GHSR, tracer 1μM), 1.06. In addition, the “NanoBRET Fold Response” value at SSTR1 (SSTR1, tracer 0.1μM) is 1.03; at SSTR1 (SSTR1, tracer 1μM) it was 1.12.

Consider `O=C(CCc1ccc2n1[B-](F)(F)[N+]1=C(c3ccc[nH]3)C=CC1=C2)NCc1ccc(C(=O)NCCOCCC(=O)N[C@@H]2CC[C@@]3(O)[C@H]4Cc5ccc(O)c6c5[C@@]3(CCN4CC3CC3)[C@H]2O6)cc1` [Naltrexone-3-NB590], for which the “NanoBRET Fold Response” value at FZD8 (FZD8, tracer 0.1μM) is 0.90; at FZD8 (FZD8, tracer 1μM) it was 0.78; on HRH3 (HRH3, tracer 0.1μM), 0.76; at HRH3 (HRH3, tracer 1μM), 0.77; on GHSR (GHSR, tracer 0.1μM) it was 1.01; on GHSR (GHSR, tracer 1μM) it was 0.90. The “NanoBRET Fold Response” value at SSTR1 (SSTR1, tracer 0.1μM) is reported as 1.06; on SSTR1 (SSTR1, tracer 1μM), 0.96.

On to `CCOC(=O)c1cc(C#N)c(N2CCC(C(=O)NS(=O)(=O)Cc3ccccc3/C=C/C(=O)NCCNC(=O)CCc3ccc4n3[B-](F)(F)[N+]3=C(c5ccc[nH]5)C=CC3=C4)CC2)nc1C` [AZD1283-1-NB590], for which the “NanoBRET Fold Response” value on FZD8 (FZD8, 0.1μM) was 1.11; at FZD8 (FZD8, 1μM) it was 0.71; on HRH3 (HRH3, 0.1μM) it was 1.16; at HRH3 (HRH3, 1μM), 0.87; on GHSR (GHSR, 0.1μM), 1.01; at GHSR (GHSR, 1μM), 1.04. Moreover, the “NanoBRET Fold Response” value at SSTR1 (SSTR1, 0.1μM) is reported as 1.08; on SSTR1 (SSTR1, 1μM) it was 1.10.

`COc1ccc2[nH]c(-c3ccc(CNC(=O)CCOCCOCCOCCOCCNC(=O)CCc4ccc5n4[B-](F)(F)[N+]4=C(c6ccc[nH]6)C=CC4=C5)cc3)c(CCNC(C)=O)c2n1` [AzomelatoninICO9-2-NB590]: the “NanoBRET Fold Response” value is recorded as 0.91 at FZD8 (0.1μM tracer); 1.03 at FZD8 (1μM tracer); 1.09 on HRH3 (0.1μM tracer); 1.03 at HRH3 (1μM tracer); 0.89 at GHSR (0.1μM tracer); 0.90 at GHSR (1μM tracer). In addition, the “NanoBRET Fold Response” value is 1.13 at SSTR1 (0.1μM tracer) and 1.01 on SSTR1 (1μM tracer).

For `CC(C)N(CC[C@H](c1ccccc1)c1cc(CCNC(=O)CCOCCOCCOCCOCCNC(=O)CCc2ccc3n2[B-](F)(F)[N+]2=C(c4ccc[nH]4)C=CC2=C3)ccc1O)C(C)C` [Tolterodine-2-NB590], the “NanoBRET Fold Response” value on FZD8 (FZD8, tracer 0.1μM) was 1.07; at FZD8 (FZD8, tracer 1μM), 1.12; at HRH3 (HRH3, tracer 0.1μM), 1.49; on HRH3 (HRH3, tracer 1μM), 1.07; on GHSR (GHSR, tracer 0.1μM) it was 0.95; at GHSR (GHSR, tracer 1μM), 1.11. In addition, the “NanoBRET Fold Response” value at SSTR1 (SSTR1, tracer 0.1μM) was found to be 1.11; on SSTR1 (SSTR1, tracer 1μM) it was 1.21.

With `CN1CCN(C2=Nc3cc(Cl)ccc3N(CC(=O)NCCOCCOCCOCCOCCNC(=O)CCc3ccc4n3[B-](F)(F)[N+]3=C(c5ccc[nH]5)C=CC3=C4)c3ccccc32)CC1` [Clozapine-c-2-NB590], the “NanoBRET Fold Response” value is 0.97 at FZD8 (FZD8, 0.1μM tracer); 1.04 at FZD8 (FZD8, 1μM tracer); 0.98 on HRH3 (HRH3, 0.1μM tracer); 0.86 on HRH3 (HRH3, 1μM tracer); 1.00 at GHSR (GHSR, 0.1μM tracer); 1.04 on GHSR (GHSR, 1μM tracer). Also, the “NanoBRET Fold Response” value was found to be 0.98 at SSTR1 (SSTR1, 0.1μM tracer) and 1.02 at SSTR1 (SSTR1, 1μM tracer).

Regarding `CN(CCC=C1c2ccccc2CCc2ccccc21)C(=O)CCOCCOCCOCCOCCNC(=O)CCc1ccc2n1[B-](F)(F)[N+]1=C(c3ccc[nH]3)C=CC1=C2` [Amitriptyline-e-2-NB590], the “NanoBRET Fold Response” value at HRH3 (tracer at 1μM) is reported as 0.95.
